Assay results taken from article PMC7794376 (Nature Communications, 2021).
In brackets after ≈: the same amount, converted by molar mass. Several values for one entry are separate records, joined by “and”; a condition that tells them apart may be missing. Equal entries are not always repeated. Where two headings read alike, the source gives them in different places.

Key:
[1] = system: M. tuberculosis coaBC Tet-OFF conditional knockdown; type: cell-based, Mycobacterium tuberculosis; conditions: GAST/Fe minimal media
human CoaB (HCoaB) = human CoaB (HCoaB) (Homo sapiens, UniProt Q9HAB8); assay: EnzChek pyrophosphate assay, HCoaB; type: biochemical
Sequence of human CoaB (HCoaB) (Q9HAB8 whole entry): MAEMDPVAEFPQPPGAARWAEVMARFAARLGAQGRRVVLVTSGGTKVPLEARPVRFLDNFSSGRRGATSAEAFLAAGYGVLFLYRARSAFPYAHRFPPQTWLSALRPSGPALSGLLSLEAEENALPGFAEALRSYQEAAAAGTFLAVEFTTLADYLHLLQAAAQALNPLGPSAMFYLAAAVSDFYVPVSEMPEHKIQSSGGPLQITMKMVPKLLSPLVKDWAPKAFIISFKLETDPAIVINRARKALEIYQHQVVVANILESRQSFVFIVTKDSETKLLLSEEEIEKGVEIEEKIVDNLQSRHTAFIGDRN

MtbCoaBC [2] = target: T1, MtbCoaBC (Mycobacterium tuberculosis, UniProt P9WNZ1); assay: CMP quantification assay (UPLC), second half of CoaB reaction, variable L-cysteine; type: biochemical; conditions: for uM CMP/uM protein.s-1 (rate of CMP formation): MtbCoaBC 32nM, replicates R1-R3
T1 sequence (P9WNZ1 whole entry): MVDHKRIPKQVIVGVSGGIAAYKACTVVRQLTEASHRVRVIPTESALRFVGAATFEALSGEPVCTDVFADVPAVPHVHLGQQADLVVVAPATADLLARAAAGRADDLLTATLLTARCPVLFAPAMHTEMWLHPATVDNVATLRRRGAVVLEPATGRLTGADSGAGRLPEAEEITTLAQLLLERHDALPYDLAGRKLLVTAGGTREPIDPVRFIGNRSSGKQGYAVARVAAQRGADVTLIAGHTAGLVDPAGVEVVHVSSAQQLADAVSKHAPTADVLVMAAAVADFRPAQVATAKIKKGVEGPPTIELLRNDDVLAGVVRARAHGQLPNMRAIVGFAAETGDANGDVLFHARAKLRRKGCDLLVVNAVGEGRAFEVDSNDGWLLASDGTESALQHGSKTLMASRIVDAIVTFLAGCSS

MtbCoaBC [3] = target: T1, MtbCoaBC; assay: Competition assays, first half of CoaB reaction (EnzChek, variable CTP or PPA); type: biochemical; conditions: for mode of inhibition: in words
M. tuberculosis H37Rv = assay: MIC determination in different media; type: cell-based; conditions: Mycobacterium tuberculosis, read-out: Minimum inhibitory concentration (MIC)
MtbCoaBC [4] = target: T1, MtbCoaBC; assay: High-throughput end-point pyrophosphate quantification assay (Biomol Green); type: biochemical; conditions: MtbCoaB activity; end-point, 2 µM CTP, 40 µM L-cysteine, 30 µM PPA; read-out: IC50 biomol green assay
MsmCoaBC = MsmCoaBC (Mycolicibacterium smegmatis, UniProt A0QWT2); assay: EnzChek pyrophosphate assay, CoaB activity of MsmCoaBC; type: biochemical, Mycobacterium smegmatis; conditions: for Activity: slope of absorbance at 360 nm vs time (s)
Sequence of MsmCoaBC (A0QWT2 whole entry): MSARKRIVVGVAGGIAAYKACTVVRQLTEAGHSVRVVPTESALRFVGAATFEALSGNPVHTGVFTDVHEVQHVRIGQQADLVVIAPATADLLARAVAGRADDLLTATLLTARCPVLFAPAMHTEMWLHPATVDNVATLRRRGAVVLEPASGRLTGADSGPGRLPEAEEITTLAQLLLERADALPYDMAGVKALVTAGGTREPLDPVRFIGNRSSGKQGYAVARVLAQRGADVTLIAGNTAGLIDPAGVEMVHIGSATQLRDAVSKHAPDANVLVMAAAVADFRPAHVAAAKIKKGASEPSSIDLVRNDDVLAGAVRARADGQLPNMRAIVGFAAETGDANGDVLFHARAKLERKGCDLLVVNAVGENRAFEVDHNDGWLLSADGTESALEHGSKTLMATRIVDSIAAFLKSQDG
Experimental: The commercially available EnzChek pyrophosphate assay kit (E-6645) (Life Technologies) was used for this assay. […] In the assays with HCoaB an enzyme concentration of 1 µM was used instead. […] Assays were performed on either a CLARIOstar or PHERAstar microplate reader (BMG Labtech) in 96-well plates (Greiner). A substrate mixture containing the substrates and the inhibitor was pre-incubated at 25 °C for 10 min. An enzyme solution was prepared and separately pre-incubated at 25 °C for 10 min. The reaction was initiated by the addition of the substrates to the solution containing the enzyme to a final volume of 75 µL. Enzymatic activity was monitored by following the absorbance at 360 nm for 30 min (100 cycles/20 s each cycle) and only the steady-state region of the assay was used for data analysis. Assays were performed in triplicates, including a negative control (lacking PPA) and a positive control (lacking inhibitor).

[5] = 0.015625 uM 2b, relative to average DMSO CT, replicates R1-R3
[6] = 0.015625 uM 2b, replicates R1-R3
[7] = 0.03125 uM 2b, relative to average DMSO CT, replicates R1-R3
[8] = 0.03125 uM 2b, replicates R1-R3
[9] = 0.0625 uM 2b, relative to average DMSO CT, replicates R1-R3
[10] = 0.25 uM 2b, relative to average DMSO CT, replicates R1-R3

O=c1cc(-c2ccc(O)c(O)c2)oc2cc(O)c(O)cc12 [compound 2b]
sensitisation on incremental silencing of CoaBC [1]: did not sensitise M. tuberculosis further | IC50 (human CoaB (HCoaB); 1 µM enzyme, average of three independent experiments ± SD): 60 ± 7 µM | activity at 3.125 µM (human CoaB (HCoaB); 3.125 uM compound, HCoaB, relative to average DMSO CT, replicates R1-R3): 96.1% | Activity % (human CoaB (HCoaB); 3.125 uM compound, HCoaB, relative to average DMSO CT, replicates R1-R3, 3.125 µM): 99.35% and 93.21% | Inhibition % (human CoaB (HCoaB); 3.125 uM compound, HCoaB, replicates R1-R3, 3.125 µM): 0.65% and 6.79% and 3.88% | activity at 6.25 µM (human CoaB (HCoaB); 6.25 uM compound, HCoaB, relative to average DMSO CT, replicates R1-R3): 97.4% | Activity % (human CoaB (HCoaB); 6.25 uM compound, HCoaB, relative to average DMSO CT, replicates R1-R3, 6.25 µM): 94.68% and 99.68% | Inhibition % (human CoaB (HCoaB); 6.25 uM compound, HCoaB, replicates R1-R3, 6.25 µM): 5.32% and 0.32% and 2.58% | activity at 25 µM (human CoaB (HCoaB); 25 uM compound, HCoaB, relative to average DMSO CT, replicates R1-R3): 66.3% | Activity % (human CoaB (HCoaB); 25 uM compound, HCoaB, relative to average DMSO CT, replicates R1-R3, 25 µM): 70.2% and 69.67% | inhibition at 25 µM (human CoaB (HCoaB); 25 uM compound, HCoaB, replicates R1-R3): 29.8% | Inhibition % (human CoaB (HCoaB); 25 uM compound, HCoaB, replicates R1-R3, 25 µM): 30.33% and 33.67% | activity at 50 µM (human CoaB (HCoaB); 50 uM compound, HCoaB, relative to average DMSO CT, replicates R1-R3): 59% | Activity % (human CoaB (HCoaB); 50 uM compound, HCoaB, relative to average DMSO CT, replicates R1-R3, 50 µM): 54.55% and 56.86% | inhibition at 50 µM (human CoaB (HCoaB); 50 uM compound, HCoaB, replicates R1-R3): 45.5% | Inhibition % (human CoaB (HCoaB); 50 uM compound, HCoaB, replicates R1-R3, 50 µM): 43.14% and 41.04% | activity at 100 µM (human CoaB (HCoaB); 100 uM compound, HCoaB, relative to average DMSO CT, replicates R1-R3): 38% | Activity % (human CoaB (HCoaB); 100 uM compound, HCoaB, relative to average DMSO CT, replicates R1-R3, 100 µM): 40.03% and 34.07% | inhibition at 100 µM (human CoaB (HCoaB); 100 uM compound, HCoaB, replicates R1-R3): 60% | Inhibition % (human CoaB (HCoaB); 100 uM compound, HCoaB, replicates R1-R3, 100 µM): 65.93% and 62.02% | uM CMP/uM protein.s-1 (rate of CMP formation) (MtbCoaBC [2]; 0.03125uM 2b, 31.25 uM cysteine): 0.1688 uM CMP/uM protein.s-1 and 0.1774 uM CMP/uM protein.s-1 and 0.1722 uM CMP/uM protein.s-1 | uM CMP/uM protein.s-1 (rate of CMP formation) (MtbCoaBC [2]; 0.03125uM 2b, 62.5 uM cysteine): 0.2177 uM CMP/uM protein.s-1 and 0.2245 uM CMP/uM protein.s-1 and 0.2185 uM CMP/uM protein.s-1 | uM CMP/uM protein.s-1 (rate of CMP formation) (MtbCoaBC [2]; 0.03125uM 2b, 250 uM cysteine): 0.2696 uM CMP/uM protein.s-1 and 0.2689 uM CMP/uM protein.s-1 and 0.2761 uM CMP/uM protein.s-1 | uM CMP/uM protein.s-1 (rate of CMP formation) (MtbCoaBC [2]; 0.03125uM 2b, 500 uM cysteine): 0.3036 uM CMP/uM protein.s-1 and 0.2988 uM CMP/uM protein.s-1 and 0.3158 uM CMP/uM protein.s-1 | uM CMP/uM protein.s-1 (rate of CMP formation) (MtbCoaBC [2]; 0.0625uM 2b, 31.25 uM cysteine): 0.139 uM CMP/uM protein.s-1 and 0.1432 uM CMP/uM protein.s-1 and 0.1461 uM CMP/uM protein.s-1 | uM CMP/uM protein.s-1 (rate of CMP formation) (MtbCoaBC [2]; 0.0625uM 2b, 62.5 uM cysteine): 0.1762 uM CMP/uM protein.s-1 and 0.1605 uM CMP/uM protein.s-1 and 0.1802 uM CMP/uM protein.s-1 | uM CMP/uM protein.s-1 (rate of CMP formation) (MtbCoaBC [2]; 0.0625uM 2b, 250 uM cysteine): 0.2128 uM CMP/uM protein.s-1 and 0.2019 uM CMP/uM protein.s-1 and 0.2135 uM CMP/uM protein.s-1 | uM CMP/uM protein.s-1 (rate of CMP formation) (MtbCoaBC [2]; 0.0625uM 2b, 500 uM cysteine): 0.2223 uM CMP/uM protein.s-1 and 0.2126 uM CMP/uM protein.s-1 and 0.2324 uM CMP/uM protein.s-1 | mode of inhibition (MtbCoaBC [2]; relative to L-cysteine, in words): uncompetitive inhibition | mode of inhibition (MtbCoaBC [3]; relative to CTP): mixed inhibition | mode of inhibition (MtbCoaBC [3]; relative to PPA): uncompetitive inhibition | Inibition type (MtbCoaBC [3]; variable substrate CTP): Mixed | Ki (MtbCoaBC [3]; variable substrate CTP): 0.093 ± 0.018 µM | MIC (M. tuberculosis H37Rv; 7H9/ADC/Glycerol): > 250 µM | MIC (M. tuberculosis H37Rv; 7H9/Cholesterol/Tyloxapol): > 250 µM | MIC (M. tuberculosis H37Rv; GAST/Fe): 50 µM (≈ 14.3 µg/mL) | IC50 (MtbCoaBC [4]): 0.1 µM | IC50 (MsmCoaBC): 0.18 ± 0.02 µM | Activity % (MsmCoaBC; [5]): 94.35% and 94.28% | activity at 0.015625 µM (MsmCoaBC; [5]): 95.3% | Inhibition % (MsmCoaBC; [6]): 5.72% and 4.75% | inhibition at 0.015625 µM (MsmCoaBC; [6]): 5.65% | Activity (MsmCoaBC; [6]): 0.0002955 and 0.0002927 and 0.0002925 | Activity % (MsmCoaBC; [7]): 88.08% and 86.2% | activity at 0.03125 µM (MsmCoaBC; [7]): 89.5% | Inhibition % (MsmCoaBC; [8]): 13.80% and 10.50% | inhibition at 0.03125 µM (MsmCoaBC; [8]): 11.9% | Activity (MsmCoaBC; [8]): 0.0002776 and 0.0002732 and 0.0002674 | Activity % (MsmCoaBC; [9]): 71.12% and 70.67% | activity at 0.0625 µM (MsmCoaBC; [9]): 74.4% | Inhibition % (MsmCoaBC; 0.0625 uM 2b, replicates R1-R3): 29.33% and 25.59% | inhibition at 0.0625 µM (MsmCoaBC; 0.0625 uM 2b, replicates R1-R3): 28.9% | Activity (MsmCoaBC; 0.0625 uM 2b, replicates R1-R3): 0.0002308 and 0.0002206 and 0.0002192 | Activity % (MsmCoaBC; [10]): 41.76% and 47.03% | activity at 0.25 µM (MsmCoaBC; [10]): 45.6% | Inhibition % (MsmCoaBC; 0.25 uM 2b, replicates R1-R3): 52.97% and 54.45% | inhibition at 0.25 µM (MsmCoaBC; 0.25 uM 2b, replicates R1-R3): 58.2%
